PubChem BioAssay AID330 (DTP/NCI, 2004)
Values joined by “and” are separate entries in the source; they are usually repeats but may differ in a detail not shown here. Identical values can stand only once. Inconclusive results and toxic doses are left out. How the source made its calls: active means survival T/C of 150% or more; inactive means T/C below 125% in these data.

Tested on: P388 leukemia ip, CD2F1 mice, survival T/C
Experiment: NCI In Vivo Anticancer Drug Screen. Data for tumor model P388 Leukemia (intraperitoneal) in CD2F1 (CDF1) mice
Details: endpoint: median survival time, higher = longer survival
How it was run: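 Mice carrying the transplanted tumor received test compound or vehicle. Survival was recorded in each group, and the value is the treated-group measurement divided by that of the vehicle-treated control group.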

[1] = dose: 50.0 mg/kg/injection, schedule: Q01DX005 (ip), vehicle: Klucel (hydroxypropylcellulose) (HPC)
[2] = dose: 100.0 mg/kg/injection, schedule: Q01DX005 (ip), vehicle: Klucel (hydroxypropylcellulose) (HPC)
[3] = dose: 200.0 mg/kg/injection, schedule: Q01DX005 (ip), vehicle: Klucel (hydroxypropylcellulose) (HPC)

Measured: T/C

COc1ccc(CC2C(=O)NC(C)C(=O)N(C)C3Cc4ccc(cc4)Oc4cc(ccc4O)CC(C(=O)NC(C)C(=O)NC(C)C(=O)N2C)N(C)C3=O)cc1 (stereo not given)
inactive: dose: 0.45 mg/kg/injection, schedule: Q01DX005 (iv), vehicle: other 108 % of control | dose: 0.9 mg/kg/injection, schedule: Q01DX005 (iv), vehicle: other 96 % of control | dose: 1.13 mg/kg/injection, schedule: Q01DX001 (iv), vehicle: other 103 % of control | dose: 1.8 mg/kg/injection, schedule: Q01DX005 (iv), vehicle: other 99 % of control | dose: 2.0 mg/kg/injection, schedule: Q01DX009 (oral), vehicle: other 105 % of control | dose: 2.25 mg/kg/injection, schedule: Q01DX001 (iv), vehicle: other 105 % of control | dose: 3.6 mg/kg/injection, schedule: Q01DX005 (iv), vehicle: other 116 % of control | dose: 4.0 mg/kg/injection, schedule: Q01DX009 (oral), vehicle: other 103 % of control | dose: 4.5 mg/kg/injection, schedule: Q01DX001 (iv), vehicle: other 111 % of control | dose: 8.0 mg/kg/injection, schedule: Q01DX009 (oral), vehicle: other 96 % of control | dose: 9.0 mg/kg/injection, schedule: Q01DX001 (iv), vehicle: other 123 % of control | dose: 16.0 mg/kg/injection, schedule: Q01DX009 (oral), vehicle: other 97 % of control | dose: 32.0 mg/kg/injection, schedule: Q01DX009 (oral), vehicle: other 94 % of control
active: dose: 0.19 mg/kg/injection, schedule: Q03HX024 (ip), vehicle: other 156 % of control | dose: 0.38 mg/kg/injection, schedule: Q03HX024 (ip), vehicle: other 171 % of control | dose: 0.5 mg/kg/injection, schedule: Q01DX009 (ip), vehicle: other 161 % of control | dose: 0.75 mg/kg/injection, schedule: Q03HX024 (ip), vehicle: other 167 % of control | dose: 0.9 mg/kg/injection, schedule: Q01DX005 (ip), vehicle: other 166 % of control | dose: 1.0 mg/kg/injection, schedule: Q01DX009 (ip), vehicle: other 172 % of control | dose: 1.0 mg/kg/injection, schedule: Q01DX009 (ip), vehicle: saline with Tween-80 163 % of control | dose: 1.13 mg/kg/injection, schedule: Q03HX008 (ip), vehicle: other 162 % of control | dose: 1.5 mg/kg/injection, schedule: Q04DX003 (ip), vehicle: other 157 % of control | dose: 1.8 mg/kg/injection, schedule: Q01DX005 (ip), vehicle: other 173 % of control | dose: 2.0 mg/kg/injection, schedule: Q01DX009 (ip), vehicle: other 192 % of control | dose: 2.0 mg/kg/injection, schedule: Q01DX009 (ip), vehicle: saline with Tween-80 152 % of control and 159 % of control | dose: 3.0 mg/kg/injection, schedule: Q04DX003 (ip), vehicle: other 152 % of control | dose: 3.6 mg/kg/injection, schedule: Q01DX005 (ip), vehicle: other 163 % of control | dose: 4.0 mg/kg/injection, schedule: Q01DX009 (ip), vehicle: other 193 % of control | dose: 4.0 mg/kg/injection, schedule: Q01DX009 (ip), vehicle: saline with Tween-80 174 % of control and 186 % of control | dose: 6.0 mg/kg/injection, schedule: Q04DX003 (ip), vehicle: other 163 % of control | dose: 7.2 mg/kg/injection, schedule: Q01DX005 (ip), vehicle: other 182 % of control | dose: 7.2 mg/kg/injection, schedule: Q01DX005 (iv), vehicle: other 153 % of control | dose: 8.0 mg/kg/injection, schedule: Q01DX009 (ip), vehicle: other 233 % of control | dose: 8.0 mg/kg/injection, schedule: Q01DX009 (ip), vehicle: saline with Tween-80 155 % of control | dose: 12.0 mg/kg/injection, schedule: Q04DX003 (ip), vehicle: other 153 % of control

N#Cc1c(-c2ccccc2)c(-c2ccccc2)n[nH]c1=O
inactive: dose: 25.0 mg/kg/injection, schedule: Q04DX002 (ip), vehicle: distilled water + Tween-80 99 % of control | dose: 50.0 mg/kg/injection, schedule: Q04DX002 (ip), vehicle: distilled water + Tween-80 100 % of control | dose: 100.0 mg/kg/injection, schedule: Q01DX001 (ip), vehicle: saline 100 % of control | dose: 100.0 mg/kg/injection, schedule: Q04DX002 (ip), vehicle: distilled water + Tween-80 98 % of control | dose: 200.0 mg/kg/injection, schedule: Q01DX001 (ip), vehicle: saline 96 % of control | dose: 200.0 mg/kg/injection, schedule: Q04DX002 (ip), vehicle: distilled water + Tween-80 98 % of control | dose: 400.0 mg/kg/injection, schedule: Q01DX001 (ip), vehicle: saline 100 % of control

CC(C)CCCC(C)Cc1cc(CC(C)CCCC(C)C)n(C)n1 (stereo not given)
inactive: dose: 25.0 mg/kg/injection, schedule: Q01DX005 (ip), vehicle: Klucel (hydroxypropylcellulose) (HPC) 108 % of control and 109 % of control and 97 % of control | [1] 102 % of control and 109 % of control and 96 % of control | [2] 101 % of control and 105 % of control and 111 % of control | [3] 108 % of control and 121 % of control and 96 % of control | dose: 400.0 mg/kg/injection, schedule: Q01DX005 (ip), vehicle: Klucel (hydroxypropylcellulose) (HPC) 100 % of control

Nc1nccc2[nH]ccc12
inactive: dose: 12.5 mg/kg/injection, schedule: Q01DX001 (ip), vehicle: saline 103 % of control | dose: 25.0 mg/kg/injection, schedule: Q01DX001 (ip), vehicle: saline 102 % of control | dose: 50.0 mg/kg/injection, schedule: Q01DX001 (ip), vehicle: saline 112 % of control

COC1OC2COC(c3ccccc3)OC2C(O)[CH]1[Hg][O]C(C)=O (stereo not given)
inactive: dose: 0.1 mg/kg/injection, schedule: Q01DX009 (ip), vehicle: distilled water + Tween-80 100 % of control | dose: 0.19 mg/kg/injection, schedule: Q01DX009 (ip), vehicle: distilled water + Tween-80 96 % of control | dose: 0.38 mg/kg/injection, schedule: Q01DX009 (ip), vehicle: distilled water + Tween-80 107 % of control | dose: 0.78 mg/kg/injection, schedule: Q01DX009 (ip), vehicle: distilled water + Tween-80 99 % of control | dose: 1.56 mg/kg/injection, schedule: Q01DX009 (ip), vehicle: distilled water + Tween-80 91 % of control | dose: 3.13 mg/kg/injection, schedule: Q01DX009 (ip), vehicle: distilled water + Tween-80 104 % of control | dose: 6.25 mg/kg/injection, schedule: Q01DX009 (ip), vehicle: distilled water + Tween-80 96 % of control | dose: 12.5 mg/kg/injection, schedule: Q01DX009 (ip), vehicle: distilled water + Tween-80 110 % of control

COc1cc(NC(C)CCCN)c2nc(C)ccc2c1Oc1ccc(F)cc1 (stereo not given)
inactive: dose: 12.5 mg/kg/injection, schedule: Q01DX009 (ip), vehicle: water 109 % of control | dose: 25.0 mg/kg/injection, schedule: Q01DX009 (ip), vehicle: water 92 % of control

CCCN1C(C)=C(C#N)C2(C(=O)Nc3ccccc32)C(C#N)=C1C
inactive: [1] 99 % of control | [2] 102 % of control | [3] 102 % of control

O=S1(=O)N=C(Sc2nc3ccccc3s2)c2ccccc21
inactive: dose: 50.0 mg/kg/injection, schedule: Q01DX005 (ip), vehicle: saline with Tween-80 102 % of control | dose: 100.0 mg/kg/injection, schedule: Q01DX005 (ip), vehicle: saline with Tween-80 107 % of control | dose: 200.0 mg/kg/injection, schedule: Q01DX005 (ip), vehicle: saline with Tween-80 117 % of control

O=C(OCc1ccccc1)N(CCF)c1cn(Cc2ccccc2)c(=O)n(Cc2ccccc2)c1=O
inactive: [1] 93 % of control | [2] 96 % of control | [3] 87 % of control

O=C(O)CCOc1cccc(OCCC(=O)O)c1
inactive: [1] 102 % of control | [2] 98 % of control | [3] 99 % of control

COc1cc(OC)c(C(=O)CCl)c(O)c1Cl
inactive: dose: 25.0 mg/kg/injection, schedule: Q01DX009 (ip), vehicle: saline with Tween-80 113 % of control | dose: 66.0 mg/kg/injection, schedule: Q01DX009 (ip), vehicle: saline with Tween-80 110 % of control

COc1cc2ccc(C(C)=O)c(O)c2cc1OC
inactive: dose: 12.5 mg/kg/injection, schedule: Q01DX009 (ip), vehicle: other 92 % of control | dose: 25.0 mg/kg/injection, schedule: Q01DX009 (ip), vehicle: other 101 % of control | dose: 50.0 mg/kg/injection, schedule: Q01DX009 (ip), vehicle: other 90 % of control | dose: 100.0 mg/kg/injection, schedule: Q01DX009 (ip), vehicle: other 108 % of control | dose: 200.0 mg/kg/injection, schedule: Q01DX009 (ip), vehicle: other 97 % of control | dose: 400.0 mg/kg/injection, schedule: Q01DX009 (ip), vehicle: other 99 % of control
